# Measured values as given in patent US20260102460A1, “NOVEL COMBINATIONS OF ANTIBIOTICS AND NON-ANTIBIOTIC DRUGS EFFECTIVE IN VIVO AGAINST GRAM-POSITIVE BACTERIA, IN PARTICULAR METHICILLIN-RESISTANT S. AUREUS (MRSA)” (EUROPEAN MOLECULAR BIOLOGY LABORATORY, priority 2022, published 2026).
# Assays:
# S. aureus Newman = test: Ticagrelor MIC upon purine supplementation; type: cell-based, Staphylococcus aureus; conditions: supplementation with adenosine, inosine or their combination; SSM9PR medium with 1% glucose
# Description: (§1) MICs were tested in all strains for the main screen. Drugs were two-fold serially diluted in 11 concentrations, and 32 no-drug control wells were included in each plate. Experiments were conducted in 384-well plates (ref. 781271 by Greiner BioOne), with a total volume of 30 μl for S. aureus and B. subtilis and 55 μl for S. pneumoniae. Volumes were optimized for each strain to achieve good dynamic range for growth and minimize risk of cross-contamination between wells. Plates were inoculated with a starting optical density at 595 nm (OD595 nm) of 0.01 from an overnight culture. All liquid handling was performed using a Biomek FX liquid handler (Beckman Coulter). Plates were sealed with breathable membranes and incubated at 37° C. OD595 nm was measured every 30 minutes for 14 hours. The MIC was considered as the first concentration at which growth was inhibited. Experiments were conducted in biological duplicates. For the adjuvant screen, antibiotics were tested in S. aureus DSM 20231 at the same concentrations as for the main screen. Non-antibiotics concentrations were selected to fall within therapeutic ranges.
# Ticagrelor (ref. SML2482, Sigma-Aldrich) MIC was measured upon purine supplementation in S. aureus Newman as described above in SSM9PR minimal medium supplemented with 1% glucose79, in 384-well plates (ref. 781271 by Greiner BioOne) with a final volume of 30 μl. […]
# S. aureus DSM 20231 = test: Adjuvant (extended non-antibiotic) combination screen; type: cell-based, Staphylococcus aureus
# Description: as §1
# 62 drugs, hereafter designated as recipients, were arrayed in 384-well plates (ref. 781271 by Greiner BioOne) in three two-fold serial dilutions and two technical replicates. Concentrations were selected according to MICs, with the highest concentration corresponding to the MIC, and the intermediate and lowest concentration corresponding to ½ and ¼ MIC, respectively. Plates were kept frozen and defrosted upon each experimental run, when the same 62 drugs and in the same three concentrations were added as donor drugs (one drug at one concentration for each recipient plate). A few drugs were screened only as donors: the combinations co-amoxiclav and cotrimoxazole in B. subtilis and S. aureus DSM 20231; co-amoxiclav, clavulanic acid, pseudomonic acid and cefuroxime in S. aureus Newman. All donor drugs were tested in two biological replicates. Control wells were included in each plate (six no-drug wells, three plain medium wells and three wells containing only the donor drug). After the addition of donor drugs, plates were inoculated with cells. Handling, inoculation, growth conditions, plate incubation and OD595 nm measurements were performed as for the MIC determination.
# For the adjuvant screen, 44 non-antibiotic drugs were tested against the same recipient drugs of the main screen for S. aureus DSM 20231.
# The inventors selected 44 drugs to include pharmaceuticals that can be co-administered with antibiotics in S. aureus infections or non-antibiotics with previously reported antibacterial activity against S. aureus. […] Interactions were scored and benchmarked as for the main screen (Methods).
# MRSA = conditions: ticagrelor 10 μg/mL combined with vancomycin 4 μg/mL; cited from earlier work
smiles,measurement,setting,value
CCCSc1nc(N[C@@H]2C[C@H]2c2ccc(F)c(F)c2)c2nnn([C@@H]3C[C@H](OCCO)[C@@H](O)[C@H]3O)c2n1 [ticagrelor],change of MIC upon purine supplementation,S. aureus Newman,increased
same,number of synergies,"S. aureus DSM 20231; S. aureus, non-antibiotic drugs with antibiotics",13
same,number of interactions,"S. aureus DSM 20231; among the 44 non-antibiotics tested, against panel of 62 drugs, S. aureus DSM 20231",27
same,initial MRSA inoculum killed,MRSA,approximately 50%
